The text below walks through data of PubChem BioAssay AID2765 (Broad Institute, 2010).

Active and inactive are the calls of the source.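 How the source made its calls: active means half-maximal concentration for the rise in caspase light signal at or below ten times the top tested dose; inconclusive means flat fit between 30% and 70% activity, or unreliable curve fit; inactive means the rest.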

The term EC50 denotes the concentration needed to bring the measured effect to its halfway point.

This assay relates to MEF A1-2A-BIM cells, caspase 3/7 luminescence, 3 h. As to the kind of experiment: caspase activation in A1-2A-BIM MEF cells, dose response, A1 inhibitor project, cell-based, luminescence, retest (AID 2765).
On to `Cc1ccc(C(=O)Nc2ccc(N3CCOCC3)nc2N2CCOCC2)cc1`, for which the EC50 was > 35 µM (inactive).
Next, `COc1ccc(C(=O)NNC(=O)CSc2nc3c(c(=O)n(C)c(=O)n3C)n2C)cc1`: > 35 µM (inactive); `c1ccc(Cc2nn3c(Cn4nnc5ccccc54)nnc3s2)cc1`: > 35 µM (inactive).
Next, `CC1Cc2ccccc2N1C(=O)c1ccc2c(c1)nnn2C` (stereo unspecified): > 35 µM (inactive); `COc1cc(C(=O)Nc2cc3c(cc2N2CCCCC2)n(C)c(=O)n3C)cc(OC)c1OC`: > 35 µM (inactive).
Next, `O=C(Nc1ccccc1)N(Cc1ccc(Cl)cc1)CC(O)C(F)(F)F` (stereo unspecified): > 35 µM (inactive); `C[C@@]12C(=O)OC(=O)[C@]1(C)C1CCC2O1`: > 35 µM (inactive).
Consider `Cc1nc2sc(C(=O)O)c(N)c2c2c1COC(C)(C)C2`, for which the EC50 was > 35 µM (inactive).
Next, `O=C(COC(=O)Cc1ccccc1[N+](=O)[O-])NCc1ccc(Cl)cc1`: > 35 µM (inactive); `COc1ccc2[nH]c(C(=O)Nc3ccc(F)cc3Br)cc2c1`: > 35 µM (inactive); `CCCCCCCC/C=C\CCCCCCCC(=O)NCCc1ccc(O)c(O)c1`: 8.06 µM.
Consider `O=C1C=CC(=O)N1c1cccc(-c2ccccc2)c1`, for which the EC50 was > 35 µM (inactive).
Next, `O=C(N/N=C\c1ccc(CN(Cc2ccc(Cl)cc2)S(=O)(=O)c2ccccc2)o1)C(=O)Nc1ccc(F)cc1`: > 35 µM (inactive); `CC(C)CC(=O)c1c[nH]c(C(=O)NCc2ccccc2)c1`: > 35 µM (inactive); `CC(=O)OC[C@]12CC[C@H]3[C@@](C)(CC[C@H]4C(C)(C)CCC[C@]34C)[C@@H]1C[C@H](C1=CC(=O)O[C@H]1OC(C)=O)O2`: 3.27 µM.
Next, `C=CC[C@@H](CC(=O)N[C@@H](CO)Cc1ccccc1)C(=O)N[C@H](COC(=O)[C@H](CC=C)CC(=O)OC(C)(C)C)Cc1ccccc1`: > 35 µM (inactive).
As for `O=c1c(O[C@@H]2O[C@H](CO)[C@@H](O)[C@H](O)[C@H]2O)c(-c2ccc(O)cc2)oc2cc(O)cc(O)c12`, the figure is > 35 µM (inactive).
As for `O=C(COC(=O)c1ccc(CN2CCCC2=O)cc1)Nc1ccc(F)cc1`, the EC50 was > 35 µM (inactive).
As for `CC(C)=C1C2C=CC1C1C(=O)N(c3ccc4c(c3)OCO4)C(=O)C21` (stereo unspecified), the figure is > 35 µM (inactive).
Next, `Cc1c(C(=O)O)cccc1N1C(=O)Nc2ccccc2N1O`: > 35 µM (inactive).
As for `Cc1cc(S(=O)(=O)N2CCCOC2CNC(=O)C(=O)NCc2ccco2)ccc1F` (stereo unspecified), the figure is > 35 µM (inactive); as for `O=C(/C=C/c1ccccc1)Nc1cccnc1`, > 35 µM (inactive).
On to `CC(C)(C)N(Cc1ccccc1)C(=O)COC(=O)CNC(=O)c1ccco1`, for which the EC50 was > 35 µM (inactive).
As for `Brc1ccc(CN2CCN(Cc3c[nH]c4ccccc34)CC2)cc1`, the figure is > 35 µM (inactive); as for `Cc1ccc(CSc2ncnc3c2cnn3-c2ccccc2)cc1`, > 35 µM (inactive).
As for `CCOc1ccc(OCc2ccc(C(=O)NN=Cc3ccc[nH]3)cc2)cc1`, the figure is > 35 µM (inactive).
Next, `COc1ccc(OC)c(C2C(C(C)=O)=C(O)C(=O)N2Cc2cccnc2)c1` (stereo unspecified): > 35 µM (inactive).
As to `CCOC(=O)c1oc2ccccc2c1NC(=O)CN1CCN(C)CC1`, the EC50 was > 35 µM (inactive).
Next, `COc1cc(CN2CCc3ccccc3C2)ccc1O`: > 35 µM (inactive); `CN1CCc2cccc(Cl)c2CC1`: > 35 µM (inactive); `O=C(CS(=O)(=O)c1ccccc1)N(CCCN1CCOCC1)c1nc2c(F)cccc2s1`: > 35 µM (inactive).
As for `O=C(CSc1nnc(-c2ccncc2)o1)Nc1ccc(F)c(F)c1`, the figure is > 35 µM (inactive); as for `Cc1cc(C)c(C(=O)COC(=O)C2CCN(c3ccc(C(F)(F)F)cn3)CC2)cc1C`, > 35 µM (inactive).
For the compound `Nc1ccc(N2CCN(Cc3ccccc3Cl)CC2)c(Cl)c1`, the EC50 was > 35 µM (inactive).
As for `CCS(=O)(=O)c1nc2ccccc2n1Cc1ccccc1Cl`, the figure is > 35 µM (inactive); as for `CSC[C@@H]1NC(=S)N(c2ccc(C)cc2)C1=O`, > 35 µM (inactive).
Next, `CCCn1c(=N)n(CCOc2ccc(OC)cc2)c2ccccc21`: > 35 µM (inactive); `O=C1c2ccsc2SCCN1Cc1cccc(F)c1`: > 35 µM (inactive); `O=C(CCC1N=C2c3ccccc3N=C(SCC(=O)NCC3CCCO3)N2C1=O)NCc1ccc(F)cc1` (stereo unspecified): > 35 µM (inactive).
Next, `CC1COc2ccccc2N1C(=O)c1ccc(Cl)cc1` (stereo unspecified): > 35 µM (inactive); `Clc1ccccc1CN(Cc1ccccc1)c1ncnc2nc[nH]c12`: > 35 µM (inactive); `COc1ccc2sc(N(CCCN(C)C)C(=O)c3ccc(S(=O)(=O)N4CCc5ccccc5C4)cc3)nc2c1`: 29.5 µM.
Take `CC(C)[C@H](NS(=O)(=O)c1ccccc1F)C(=O)OCC(=O)Nc1cccc(S(N)(=O)=O)c1`: the EC50 is > 35 µM (inactive).
Next, `Cc1nn(Cc2c(Cl)cccc2Cl)c(C)c1NC(=O)c1cn(-c2ccccc2)nc1-c1ccccc1`: 15.1 µM.
Next, `CC(=O)Nc1ccc(SC[C@H](Cc2ccccc2)N2CC[C@@H](C(C)(C)C)CCC2=O)cc1`: > 35 µM (inactive); `CSc1ccc(C(c2c(C)[nH][nH]c2=O)c2c(C)[nH][nH]c2=O)cc1`: > 35 µM (inactive).
As for `Cc1ccc(-n2nc3c(=O)n(CC(=O)NCCC4=CCCCC4)nc(C)c3c2C)cc1`, the figure is > 35 µM (inactive).
On to `CC(=O)Nc1ccc([N+](=O)[O-])c(CS(=O)(=O)c2ccc(C)cc2)c1[N+](=O)[O-]`, for which the EC50 was > 35 µM (inactive).
As for `CCOC(=O)C1=C(c2ccccc2)O/C(=C(/C#N)C(F)(F)F)S1`, the figure is > 35 µM (inactive).
As to `CN(C)CC#CCCCCCCC#CCN(C)C`, the EC50 is > 35 µM (inactive).
Next, `COc1ccc(CNS(=O)(=O)c2ccccc2Br)cc1`: > 35 µM (inactive); `CCn1nnc(NC(=O)Cc2ccc(Cl)cc2)n1`: > 35 µM (inactive).
Next, `O=C(NCc1ccc(/C=N\NC(=O)C(=O)Nc2ccccc2Br)o1)C(=O)Nc1ccccc1`: > 35 µM (inactive); `COc1ccc(CCNC(=O)CSc2nc(-c3ccc(OC)c(OC)c3)ccc2C#N)cc1`: > 35 µM (inactive).
As for `Cc1cccc(NC(=O)CSc2nc(C)c(CC(=O)c3ccc(Br)cc3)c(C)c2C#N)c1C`, the figure is > 35 µM (inactive); as for `CC(=O)Nc1ccc(NC(=O)c2cc(C)nn2-c2ccccc2)cc1`, > 35 µM (inactive).
As to `COc1ccc(OC)c2[nH]c(C(=O)N3CCC(C(=O)O)CC3)cc12`, the EC50 is > 35 µM (inactive).
For the compound `COc1ccc(S(N)(=O)=O)cc1C(=O)OCCCOc1ccc(F)cc1`, the EC50 was > 35 µM (inactive).
Next, `Cc1cc(C(=O)Nc2cccc3c2O[C@@H](CN(C)S(=O)(=O)c2ccccc2)[C@H](C)CN([C@@H](C)CO)C3=O)n(C)n1`: > 35 µM (inactive); `O=[N+]([O-])c1ccc(N2CCCC2)c(F)c1Br`: > 35 µM (inactive).
For `COC(=O)C(Cc1ccccc1)OS(N)(=O)=O` (stereo unspecified), the EC50 is > 35 µM (inactive).
